Here are results for eight compounds from patent US8492409B2, “1-substituted pyridyl-pyrazolyl amide compounds and uses thereof” (Sinochem Corporation, priority 2008, dated 2013).

In assay [1] the test system is beet armyworm (Laphygma exigua Hubner). Put plainly: Test against beet armyworm (leaf disc spray). The note with it: Spodoptera exigua, foliar, 96 h, after 96 h; for mortality at 0.3 ppm / mortality at 0.6 ppm: parallel test; for mortality at 1 ppm / mortality at 10 ppm: third instar. Format: in vivo. As to the method:
(§1) According to the solubility of test compounds, the compounds are dissolved in acetone or dimethyl sulfoxide, and then diluted with 0.1% aqueous solution of Tween 80 to form 50 ml test liquid, the content of acetone or dimethyl sulfoxide in the total solution is not more than 10%.
The cabbage leaves were perforated to get 1 cm diameter leaf discs by the hole puncher. Certain concentrations of test compounds were sprayed on both sides of the discs at the spray volume of 0.5 ml by Airbrush. Eight test insects (third instar) were introduced on each treatment after drying. Each treatment repeated 3 times. The treated discs were placed in a chamber of 24° C., 60%-70% relative humidity, no light. After 96 h, the number of surviving insects was investigated and the mortality was calculated.

The subject of assay [2] is army worm (Mythimna separata). In words: Test against army worm (corn leaf dip). The assay is classed as in vivo. The note with it: foliar, third instar, after 72 h. On the procedure:
as §1
The middle part of fresh corn leaves were chosen and cut into 3 cm sects. The sects were dipped into the solution of certain concentration of test compounds for 10 seconds, dried and placed in 9 cm diameter Petri dish. Eight regular health insects (third instar) were introduced on each treatment. Each treatment was repeated for 4 times. The pure water was set as CK. The treated discs were placed in a chamber of 24° C., 60%-70% relative humidity and day light. After 72 h, the number of surviving insects was investigated and the mortality rates were calculated.

Assay [3] concerns Diamondback moth (Plutella xylostella). Put plainly: Test against diamondback moth (cabbage leaf disc dip). Format: in vivo. The note with it: foliar, third instar, after 72 h. On the procedure:
as §1
The leaves of cabbage grown in greenhouse were chosen, removed the surface waxy layer and perforated to get 2 cm diameter leaf discs by the hole puncher. The discs were dipped in a solution of certain concentrations of test compounds for 10 seconds, dried and placed in 9 cm diameter Petri dish. Eight regular health insects (third instar) were introduced on each treatment. Each treatment was repeated for 4 times. The pure water was set as CK. The treated discs were placed in a chamber of 24° C., 60%-70% relative humidity and day light. After 72 h, the number of surviving insects was investigated and the mortality was calculated.

The subject of assay [4] is striped stem borer (Chilo suppressalis (Walker)). Put plainly: Test against striped stem borer (artificial feed film). Format: in vivo. As to the method: as §1
The 6 well culture plates were chosen, 5 mL artificial feed was added into each well. After the feed solidified, 0.2 mL solution of certain concentrations of test compounds was added into per well with a continuous sampler and made the uniform film in the feed surface. Eight regular health insects (second instar) were introduced on each treatment after drying. Each treatment was repeated for 4 times. The pure water was set as CK. The treated discs were placed in a chamber of 24° C., 60%-70% relative humidity and day light. After 72 h, the number of surviving insects was investigated and the mortality was calculated.

For assay [5], the system named is rice leaf folder (Cnaphalocrocis medinalis Guenee). Put plainly: Field test against rice leaf folder. Format: in vivo. The note with it: 168 h, spray 450 L/ha, after 7 d. As to the method: A certain concentrations of test compounds were sprayed on leaves at the time of hatching peak of rice leaf folder. Spay volume was 450 L/ha. The section area of rice was 32 m^2. Each treatment was repeated for 3 times. After 7d, the number of surviving insects was investigated and the mortality was calculated.

Assay [6] has as its system armyworm (Mythimna seperata). The note with it: 50 ppm; cited from earlier work.
Assay [7] deals with tomato late blight (Phytophthora infestans). Put plainly: microbe, parasite or virus in culture. Format: cell-based. The settings on record: 240 h, read-out: control efficiency against tomato late blight (rate of fungi inhibition).
Assay [8] concerns cucumber anthracnose (Colletotrichum lagenarium, CA). In words: Fungicidal activity test against cucumber anthracnose in vivo. The note with it: 400 ppm spray on potted cucumber seedlings; visual assessment after 5 days.
For assay [9], the system named is fall armyworm (Spodoptera frugiperda). The note with it: 10 ppm; cited from earlier work.
[10] abbreviates: 0.3 ppm, Table 3, read-out: Mortality (%) against beet armyworm.
The mark [11] stands for this setting: 10 ppm, read-out: mortality against beet armyworm.
The mark [12] stands for this setting: parallel test, Table 5, after 72 h.

Where two headings read alike, the source gives them in different places.

As to `CNC(=O)c1cc(Cl)cc(Cl)c1NC(=O)c1cc(Br)nn1-c1ncc(Cl)cc1Cl` [Compound 19], in assay [1] (setting [10]), the mortality at 0.3 ppm stood at 87.5%. In assay [1], this compound returned a mortality at 1 ppm of no less than 90%. Moreover, the mortality at 10 ppm in [1] (setting [11]) is no less than 90%. Further, the mortality at 0.4 ppm in [2] is no less than 90%. This compound came in with a mortality at 0.8 ppm in assay [3] greater than 90%. In [4] (setting [12]), this compound gave a mortality at 5 ppm of 90% and a mortality at 10 ppm of 100%. In [4] (second instar, after 72 h), the mortality at 10 ppm is no less than 90%. In assay [5], this compound yielded a mortality at 30 g/ha of 56% and a mortality at 60 g/ha of 63%.
In turn, `CCNC(=O)c1cc(Cl)cc(C)c1NC(=O)c1cc(Br)nn1-c1ncc(Cl)cc1Cl` [Compound 22] had a mortality at 1 ppm in assay [1] of no less than 90%. The mortality at 10 ppm in assay [1] (setting [11]) is no less than 90%.
Turning to `Cc1cc(Cl)cc(C(N)=O)c1NC(=O)c1cc(Br)nn1-c1ncc(Cl)cc1Cl` [Compound 15], in [1] (setting [11]), the mortality at 10 ppm is no less than 90%.
Consider `CNC(=O)c1cc(Cl)cc(C)c1NC(=O)c1cc(Br)nn1-c1ncc(Br)cc1Cl` [KC1, reference compound], for which the mortality at 0.3 ppm in assay [1] (read-out: Mortality (%) against beet armyworm, 0.3 ppm, Table 3) amounted to 0%; in assay [1] (read-out: Mortality (%) against beet armyworm, 0.3 ppm, Table 4) it was 12.5%. In addition, the mortality at 0.6 ppm in [1] (read-out: Mortality (%) against beet armyworm, 0.6 ppm, Table 4) was found to be 75.5%. In addition, in [6], the “insecticidal activity against armyworm” value was “highly effective”.
Consider `CNC(=O)c1cc(Cl)cc(C)c1NC(=O)c1cc(C(F)(F)F)nn1-c1ncc(Cl)cc1Cl` [Compound 3], for which, in [1], the mortality at 1 ppm is no less than 90%. Besides, the mortality at 10 ppm in assay [1] (setting [11]) is no less than 90%.
`CNC(=O)c1cc(Cl)cc(C)c1NC(=O)c1cc(Br)nn1-c1ncc(Cl)cc1Cl` [Compound 18]: the mortality at 0.3 ppm in assay [1] (setting [10]) amounted to 50%; in assay [1] (0.3 ppm, Table 4, read-out: Mortality (%) against beet armyworm), 62%. For the same compound, the mortality at 0.6 ppm in assay [1] (0.6 ppm, Table 4, read-out: Mortality (%) against beet armyworm) was determined as 100%. Moreover, in [1], the mortality at 1 ppm was no less than 90%. Moreover, the mortality at 10 ppm is no less than 90% in assay [1] (setting [11]) and no less than 90% in assay [4] (second instar, after 72 h). In assay [2], this compound had a mortality at 0.4 ppm of no less than 90%.
As to `CNC(=O)c1cc(Cl)cc(C)c1NC(=O)c1cc(C)nn1-c1ncc(Cl)cc1Cl` [Compound 1], the mortality at 10 ppm in assay [1] (read-out: mortality against beet armyworm, 10 ppm) is no less than 90%. Also, in assay [7], the inhibition at 25 ppm was greater than 90%. Besides, in assay [8], the “protective controlling effect against cucumber anthracnose” value is on record as “more than 90%”.
In assay [4] (setting [12]), `CNC(=O)c1cc(Cl)cc(C)c1NC(=O)c1cc(Br)nn1-c1ncccc1Cl` [KC2, chlorantraniliprole, reference compound] registered a mortality at 5 ppm of 60% and a mortality at 10 ppm of 90%. In [5], this compound had a mortality at 30 g/ha of 34% and a mortality at 60 g/ha of 52%. Moreover, the “insecticidal activity against fall armyworm” value in [9] is recorded as “highly effective”.

By mortality is commonly meant the percentage killed. In general, inhibition refers to how much of the control response was suppressed.
